Read-outs that look alike come from different tables or passages of the source. Marks after values point to notes of the source that are not given here. Numbered stars: 1 amine (or outer) side, 2 acyl side, 3 side chain; on linkers, the order of the positions; unused ones are H or OH. Side chains are listed from the residue outwards. Peptide text beside a SMILES is read from it. * marks the point of attachment. γGlu = O=C(O)[C@H](CCC(=O)[*:2])N[*:1]; Palmitoyl = CCCCCCCCCCCCCCCC(=O)*
What was measured:
[1] = Stability testing of peptides in plasma; type: in vitro ADME, mouse
Method: The stability in plasma of the peptideS […], […], […] and […] was determined as follows. […] The spiked plasma samples were gently mixed and allowed to equilibrate for about 5 minutes before start of experiment. The plasma samples were incubated for 48 hours in a GalaxyR CO2 incubator at 37° C. […] The samples were stored at -70° C. until analysis. Plasma samples were assayed as follows. […] After mixing and centrifugation, 100 μl the supernatant was transferred to a new plate and 1 μl was injected onto an analytical column. The analysis was performed using a μLC-system ([…]) coupled to a medium high resolution mass spectrometer (Perkin Elmer PenTOF) with positive electrospray ionisation. […] Flow: 0.1 ml/min using a slow reversed phase gradient. […] Cleavage products arise from the action of the protease DPP IV in plasma. Both the degradation of the peptides and formation of peptide products were reported in percentage of the initial peptide concentration. Peaks were integrated and % remaining peptide was calculated: […] Levels of deamidation and DPP IV cleavage were low for […] and […].

Mouse GlucR = biological target: T1, Mouse GlucR (Mus musculus, UniProt Q61606); assay: cAMP assay in 3.2% mouse serum albumin (assay 2); type: cell-based; settings: relative potencies vs natural ligands
T1 construct: expressed in transfected cells

[2] = tested on: diet induced obesity (DIO) mouse model; assay: Diet induced obesity (DIO) mouse model, study A; type: in vivo; settings: for BeHy / FGF21 / HOMA / Hepatic TG / Plasma Cholesterol / Plasma NEFA / Plasma TG: day 14; for Glucose / Insulin: day 14, 4-hour fasting
Excerpt: Female C57/B16JHsdOla (obtained from Harlan Laboratories. UK) were started on a high fat diet of D12492 (Research Diets, NJ, USA) and a chocolate confection, delicato ball (Delicata Bakverk, Sweden) at 9-11 weeks of age, and were maintained on the diet for 16 weeks prior to arrival to the animal facility, during a three week acclimation period and during drug treatment, caloric content of the two components of the diet is shown in Table 11. The mice were divided into 9 groups (n=5-6), and treatment was started at 29 weeks of age.
The body weight of the animals was monitored daily throughout the dosing period. At day 14, blood samples for the measurement of plasma glucose and insulin from conscious mice were obtained after a 4-hour fasting period. Mice were then anaesthetized using isoflurane and terminal blood was collected from the capillary bed behind the eye. The following parameters were measured: blood chemistry measurements of triglycerides, total cholesterol, non-esterified fatty acids (NEFA), beta-hydroxybutyrate and fibroblast growth factor 21 (FGF21) (Tables 14 and 15 below).

Human GLP1R = Human GLP1R (Homo sapiens, UniProt P43220); assay: cell-based
Human GIPr = biological target: T2, Human GIPr (Homo sapiens, UniProt P48546); assay: cAMP activity assay in assay medium (assay 1); type: cell-based; settings: assay medium
T2 construct: expressed in transfected cells
T2 sequence (P48546 22-466): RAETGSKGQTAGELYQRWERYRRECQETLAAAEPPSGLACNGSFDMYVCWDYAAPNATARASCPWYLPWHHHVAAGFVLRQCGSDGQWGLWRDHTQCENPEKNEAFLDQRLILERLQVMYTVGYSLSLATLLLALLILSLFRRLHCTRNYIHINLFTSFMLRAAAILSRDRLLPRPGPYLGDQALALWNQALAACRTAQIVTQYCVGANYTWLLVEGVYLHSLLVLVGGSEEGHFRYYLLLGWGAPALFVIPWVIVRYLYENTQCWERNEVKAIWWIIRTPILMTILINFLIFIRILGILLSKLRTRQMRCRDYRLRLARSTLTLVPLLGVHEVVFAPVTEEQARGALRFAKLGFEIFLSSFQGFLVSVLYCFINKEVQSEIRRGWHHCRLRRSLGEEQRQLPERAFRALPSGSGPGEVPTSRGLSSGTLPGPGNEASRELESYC
Excerpt: (§1) Biological Activity of Peptides in Cell-Based cAMP Activity Assay (Assay 1):
(§2) All sample dilutions were made in duplicate.

Human GlucR = biological target: T3, Human GlucR (Homo sapiens, UniProt P47871); assay: cAMP activity assay in assay medium (assay 1); type: cell-based; settings: assay medium
T3 construct: expressed in transfected cells
Excerpt: as §1, §2

Chain of Human GLP1R (P43220 24-463): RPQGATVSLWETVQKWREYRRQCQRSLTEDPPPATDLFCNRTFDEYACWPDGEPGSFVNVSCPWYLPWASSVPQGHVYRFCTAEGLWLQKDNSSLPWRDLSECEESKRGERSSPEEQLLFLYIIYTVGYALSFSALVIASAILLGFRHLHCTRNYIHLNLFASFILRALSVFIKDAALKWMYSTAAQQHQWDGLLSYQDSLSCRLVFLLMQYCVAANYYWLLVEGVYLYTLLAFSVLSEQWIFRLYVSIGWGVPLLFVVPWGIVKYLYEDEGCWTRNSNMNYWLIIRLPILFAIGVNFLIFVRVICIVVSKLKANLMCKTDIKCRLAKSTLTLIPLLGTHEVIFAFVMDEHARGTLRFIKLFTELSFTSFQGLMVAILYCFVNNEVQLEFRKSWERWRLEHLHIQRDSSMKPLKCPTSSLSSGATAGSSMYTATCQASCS
T3 sequence (P47871 26-477): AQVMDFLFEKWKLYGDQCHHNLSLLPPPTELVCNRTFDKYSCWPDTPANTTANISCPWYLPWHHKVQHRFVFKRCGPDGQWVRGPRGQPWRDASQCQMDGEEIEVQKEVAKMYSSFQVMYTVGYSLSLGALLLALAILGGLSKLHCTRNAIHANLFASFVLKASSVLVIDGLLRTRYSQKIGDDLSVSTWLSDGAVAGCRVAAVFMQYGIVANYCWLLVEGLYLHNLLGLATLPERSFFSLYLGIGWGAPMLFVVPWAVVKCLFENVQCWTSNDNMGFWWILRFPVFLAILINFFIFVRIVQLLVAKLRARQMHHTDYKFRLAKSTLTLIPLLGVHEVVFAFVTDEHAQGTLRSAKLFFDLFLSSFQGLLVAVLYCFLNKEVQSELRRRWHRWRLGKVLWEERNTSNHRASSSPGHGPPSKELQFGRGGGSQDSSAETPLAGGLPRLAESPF
T1 sequence (Q61606 27-485): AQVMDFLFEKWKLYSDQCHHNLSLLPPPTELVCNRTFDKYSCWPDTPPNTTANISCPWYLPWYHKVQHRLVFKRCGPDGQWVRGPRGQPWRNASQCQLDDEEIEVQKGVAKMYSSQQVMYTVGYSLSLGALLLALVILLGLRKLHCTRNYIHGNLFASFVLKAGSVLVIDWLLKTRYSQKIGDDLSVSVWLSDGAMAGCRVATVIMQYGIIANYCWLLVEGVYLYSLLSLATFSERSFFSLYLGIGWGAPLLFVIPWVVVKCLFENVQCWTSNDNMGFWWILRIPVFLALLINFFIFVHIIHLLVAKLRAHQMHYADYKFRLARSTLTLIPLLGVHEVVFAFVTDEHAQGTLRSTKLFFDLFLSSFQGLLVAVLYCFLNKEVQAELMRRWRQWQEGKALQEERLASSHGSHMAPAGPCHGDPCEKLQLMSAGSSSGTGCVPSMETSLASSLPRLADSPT

CCCCCCCCCCCCCCCC(=O)N[C@@H](CCC(=O)NCCCC[C@H](NC(=O)[C@H](CCCCN)NC(=O)[C@H](CO)NC(=O)[C@H](Cc1ccc(O)cc1)NC(=O)[C@H](CC(=O)O)NC(=O)[C@H](CO)NC(=O)[C@@H](NC(=O)[C@H](Cc1ccccc1)NC(=O)[C@@H](NC(=O)CNC(=O)[C@H](CCC(N)=O)NC(=O)[C@H](CO)NC(=O)[C@@H](N)Cc1c[nH]cn1)[C@@H](C)O)[C@@H](C)O)C(=O)N[C@@H](CC(C)C)C(=O)N[C@@H](CC(=O)O)C(=O)N[C@@H](CO)C(=O)N[C@@H](CCC(=O)O)C(=O)N[C@@H](CCCNC(=N)N)C(=O)N[C@@H](C)C(=O)N[C@@H](CCCNC(=N)N)C(=O)N[C@@H](CC(=O)O)C(=O)N[C@@H](Cc1ccccc1)C(=O)N[C@H](C(=O)N[C@@H](C)C(=O)N[C@@H](Cc1c[nH]c2ccccc12)C(=O)N[C@@H](CC(C)C)C(=O)N[C@H](C(=O)N[C@@H](C)C(=O)NCC(=O)NCC(N)=O)C(C)C)C(C)C)C(=O)O [Peptide G730] (H-HSQGTFTSDYSKK([γGlu-Palmitoyl])LDSERARDFVAWLVAGG-NH2; N-terminus assumed)
% +1 DPP cleaved product [1]: 5% | % +1 prod [1]: 15% | % DPP cleaved product [1]: 14% | remaining at 24 h, 2 μmol/L ([1]; mouse plasma, 37° C., 24 h, read-out: % stable peptide): 65% | Mouse GlucR/GLP1R Ratio (Mouse GlucR): 0.04 | BW day 14 (% change of vehicle mean) ([2]; 10 nmol/kg sc twice daily 14 days): −7.5% | BeHy ([2]; 10 nmol/kg sc twice daily): 428 µmol/L | FGF21 ([2]; 10 nmol/kg sc twice daily): 1963 pg/mL | HOMA ([2]; 10 nmol/kg sc twice daily): 3.3 | Hepatic TG ([2]; 10 nmol/kg sc twice daily): 9.0 * g TB/100 g tissue | Plasma Cholesterol ([2]; 10 nmol/kg sc twice daily): 3.10 mM | Plasma NEFA ([2]; 10 nmol/kg sc twice daily): 0.28 Mm | Plasma TG ([2]; 10 nmol/kg sc twice daily): 0.21 mM | Glucose ([2]; 10 nmol/kg sc twice daily): 7.2 mM | Insulin ([2]; 10 nmol/kg sc twice daily): 0.4 nM | BW day 14 (% change of vehicle mean) ([2]; 20 nmol/kg sc twice daily 14 days): −15.6% | BeHy ([2]; 20 nmol/kg sc twice daily): 750 µmol/L | FGF21 ([2]; 20 nmol/kg sc twice daily): 2236 pg/mL | HOMA ([2]; 20 nmol/kg sc twice daily): 1.7 | Hepatic TG ([2]; 20 nmol/kg sc twice daily): 17.7 g TB/100 g tissue | Plasma Cholesterol ([2]; 20 nmol/kg sc twice daily): 2.46 mM | Plasma NEFA ([2]; 20 nmol/kg sc twice daily): 0.25 Mm | Plasma TG ([2]; 20 nmol/kg sc twice daily): 0.20 mM | Glucose ([2]; 20 nmol/kg sc twice daily): 6.7 mM | Insulin ([2]; 20 nmol/kg sc twice daily): 0.2 nM | BeHy ([2]; 50 nmol/kg sc twice daily): 1477 µmol/L | FGF21 ([2]; 50 nmol/kg sc twice daily): 5294 pg/mL | HOMA ([2]; 50 nmol/kg sc twice daily): 2.1 | Hepatic TG ([2]; 50 nmol/kg sc twice daily): 28.1 g TB/100 g tissue | Plasma Cholesterol ([2]; 50 nmol/kg sc twice daily): 2.19 mM | Plasma NEFA ([2]; 50 nmol/kg sc twice daily): 0.32 Mm | Plasma TG ([2]; 50 nmol/kg sc twice daily): 0.23 mM | Glucose ([2]; 50 nmol/kg sc twice daily): 5.9 mM | Insulin ([2]; 50 nmol/kg sc twice daily): 0.3 nM | body weight over the 14 day dosing period ([2]; DIO mice, FIGS. 1-4): dose dependent and continuous weight loss | EC50 (Human GLP1R; EC50 at the GLP1R at 0% HSA, calculated from variation in cAMP generation with HSA concentration): 7 pM | EC50 (Human GLP1R; Human GLP1R EC50, 4.4% human serum albumin): 455 pM | EC50 (Human GIPr; Table 2, C-terminal amide peptides, read-out: Human GIPr EC50): 45000 pM | EC50 (Human GIPr; Table 4, read-out: hGIPR EC50): 56600 pM | EC50 (Human GlucR; Table 2, C-terminal amide peptides, read-out: Human GlucR EC50): 6.23 pM | EC50 (Human GlucR; Table 4, read-out: hGlucR EC50): 15 pM
